Experimental data from ChEMBL document CHEMBL1165944, “Synthesis and biological evaluation of a new series of berberine derivatives as dual inhibitors of acetylcholinesterase and butyrylcholinesterase” (Bioorg Med Chem, 2010).

Tests used:
[1] = biological target: Acetylcholinesterase (Electrophorus electricus, UniProt O42275); assay: Inhibition of electric eel AChE by Ellman's assay
[2] = biological target: Cholinesterase (Equus caballus, UniProt P81908); assay: Inhibition of equine serum BuChE by Ellman's method
Sequence of Cholinesterase (P81908 whole entry): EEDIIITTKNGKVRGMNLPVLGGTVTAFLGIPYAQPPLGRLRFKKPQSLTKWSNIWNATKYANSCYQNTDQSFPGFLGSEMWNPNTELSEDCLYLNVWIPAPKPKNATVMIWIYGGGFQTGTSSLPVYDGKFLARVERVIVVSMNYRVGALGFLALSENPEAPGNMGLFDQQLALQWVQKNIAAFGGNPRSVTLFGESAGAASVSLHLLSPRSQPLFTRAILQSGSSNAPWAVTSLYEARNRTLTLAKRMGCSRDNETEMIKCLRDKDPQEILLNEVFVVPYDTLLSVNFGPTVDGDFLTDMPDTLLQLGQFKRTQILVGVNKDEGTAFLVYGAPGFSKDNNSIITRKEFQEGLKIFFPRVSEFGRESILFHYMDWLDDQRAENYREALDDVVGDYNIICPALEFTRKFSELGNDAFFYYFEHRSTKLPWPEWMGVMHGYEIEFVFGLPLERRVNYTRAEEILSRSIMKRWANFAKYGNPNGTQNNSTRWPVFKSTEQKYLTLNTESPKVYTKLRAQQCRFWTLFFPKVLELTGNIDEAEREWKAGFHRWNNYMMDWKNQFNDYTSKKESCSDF

Sequence of Acetylcholinesterase (O42275 whole entry): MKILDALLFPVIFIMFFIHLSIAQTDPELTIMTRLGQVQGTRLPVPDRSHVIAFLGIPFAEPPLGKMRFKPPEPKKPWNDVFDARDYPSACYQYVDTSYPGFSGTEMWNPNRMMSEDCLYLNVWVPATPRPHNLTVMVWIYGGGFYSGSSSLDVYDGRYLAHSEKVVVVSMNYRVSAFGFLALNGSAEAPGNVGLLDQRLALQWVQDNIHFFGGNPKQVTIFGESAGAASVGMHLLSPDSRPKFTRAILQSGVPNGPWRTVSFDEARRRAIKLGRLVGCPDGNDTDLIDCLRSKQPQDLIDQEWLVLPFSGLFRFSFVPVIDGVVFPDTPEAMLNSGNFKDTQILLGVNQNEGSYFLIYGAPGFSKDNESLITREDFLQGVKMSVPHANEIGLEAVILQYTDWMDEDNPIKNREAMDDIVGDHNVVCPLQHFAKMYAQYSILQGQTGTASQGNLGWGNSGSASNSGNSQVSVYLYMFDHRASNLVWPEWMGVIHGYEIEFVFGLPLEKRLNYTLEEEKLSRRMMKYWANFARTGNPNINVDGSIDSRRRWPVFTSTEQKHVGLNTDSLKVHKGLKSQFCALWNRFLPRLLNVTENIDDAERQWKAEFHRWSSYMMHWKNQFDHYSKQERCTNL

Structure (SMILES) | IC50 [1] [nM] | IC50 [2] [nM]
COc1ccc2cc3[n+](cc2c1OCCC(=O)Nc1ccc([N+](=O)[O-])cc1)CCc1cc2c(cc1-3)OCO2 | 6500 | 5530
COc1ccc2cc3[n+](cc2c1OCC[n+]1ccccc1)CCc1cc2c(cc1-3)OCO2 | 196 | 
COc1ccc2cc3[n+](cc2c1OCCCN(C)c1ccccc1)CCc1cc2c(cc1-3)OCO2 | 156 | 
COc1ccc2cc3[n+](cc2c1OCCC(=O)Nc1ccc(Cl)cc1)CCc1cc2c(cc1-3)OCO2 | 3860 | 
COc1ccc2cc3[n+](cc2c1OCCCCOc1ccc(Br)cc1)CCc1cc2c(cc1-3)OCO2 | 743 | 
COc1ccc2cc3[n+](cc2c1OCCCOc1ccc(Cl)cc1)CCc1cc2c(cc1-3)OCO2 | 715 | 
COc1ccc2cc3[n+](cc2c1OCC[n+]1cccc(C)c1)CCc1cc2c(cc1-3)OCO2 | 48 | 
COc1ccc2cc3[n+](cc2c1OCCOc1c(OC)ccc2cc4[n+](cc12)CCc1cc2c(cc1-4)OCO2)CCc1cc2c(cc1-3)OCO2 | 320 | 
COc1ccc2cc3[n+](cc2c1OCCCOc1ccc(C)cc1)CCc1cc2c(cc1-3)OCO2 | 878 | 
COc1ccc2cc3[n+](cc2c1OCCCOc1ccc(Br)cc1)CCc1cc2c(cc1-3)OCO2 | 265 | 
COc1ccc2cc3[n+](cc2c1OCCCCOc1c(OC)ccc2cc4[n+](cc12)CCc1cc2c(cc1-4)OCO2)CCc1cc2c(cc1-3)OCO2 | 176 | 
COc1ccc2cc3[n+](cc2c1OCCCCOc1ccccn1)CCc1cc2c(cc1-3)OCO2 | 340 | 
COc1ccc2cc3[n+](cc2c1OCCC[n+]1cccc(C)c1)CCc1cc2c(cc1-3)OCO2 | 152 | 
COc1ccc2cc3[n+](cc2c1OCCCCSc1ccc2ccccc2c1)CCc1cc2c(cc1-3)OCO2 | 1350 | 
COc1ccc2cc3[n+](cc2c1OCCCOc1ccc([N+](=O)[O-])cc1)CCc1cc2c(cc1-3)OCO2 | 400 | 
COc1ccc(OCCCOc2c(OC)ccc3cc4[n+](cc23)CCc2cc3c(cc2-4)OCO3)cc1 | 1000 | 
COc1ccc2cc3[n+](cc2c1OCCCCOc1ccc([N+](=O)[O-])cc1)CCc1cc2c(cc1-3)OCO2 | 490 | 
COc1ccc2cc3[n+](cc2c1OCCCSc1ccc2ccccc2c1)CCc1cc2c(cc1-3)OCO2 | 500 | 
COc1ccc(NC(=O)CCOc2c(OC)ccc3cc4[n+](cc23)CCc2cc3c(cc2-4)OCO3)cc1 | 2800 | 
COc1ccc2cc3[n+](cc2c1OCCCOc1ccc2ccccc2c1)CCc1cc2c(cc1-3)OCO2 | 359 | 
COc1ccc2cc3[n+](cc2c1OCCCCOc1ccc(Cl)cc1)CCc1cc2c(cc1-3)OCO2 | 1500 | 
COc1ccc2cc3[n+](cc2c1OCCC(=O)Nc1ccc(C)cc1)CCc1cc2c(cc1-3)OCO2 | 1460 | 
COc1ccc2cc3[n+](cc2c1OCCCCOc1ccc2ccccc2c1)CCc1cc2c(cc1-3)OCO2 | 1900 | 
COc1ccc2cc3[n+](cc2c1OCCCOc1c(OC)ccc2cc4[n+](cc12)CCc1cc2c(cc1-4)OCO2)CCc1cc2c(cc1-3)OCO2 | 226 | 
COc1ccc2cc3[n+](cc2c1OCCC(=O)Nc1ccccc1)CCc1cc2c(cc1-3)OCO2 | 535 | 
COc1ccc2cc3[n+](cc2c1OCCCNc1ccccc1)CCc1cc2c(cc1-3)OCO2 | 138 | 
COc1ccc(OCCCCOc2c(OC)ccc3cc4[n+](cc23)CCc2cc3c(cc2-4)OCO3)cc1 | 748 | 
COc1ccc2cc3[n+](cc2c1OCCC[n+]1ccccc1)CCc1cc2c(cc1-3)OCO2 | 359 | 
